The text below walks through data of ChEMBL document CHEMBL1909046, “DrugMatrix in vitro pharmacology data”.

Data set [1] has as its target T1, C-X-C chemokine receptor type 1 (Homo sapiens, UniProt P25024). Also: in other assays of this panel Not Active means under 50% inhibition at 10 µM.
T1 sequence (P25024 whole entry): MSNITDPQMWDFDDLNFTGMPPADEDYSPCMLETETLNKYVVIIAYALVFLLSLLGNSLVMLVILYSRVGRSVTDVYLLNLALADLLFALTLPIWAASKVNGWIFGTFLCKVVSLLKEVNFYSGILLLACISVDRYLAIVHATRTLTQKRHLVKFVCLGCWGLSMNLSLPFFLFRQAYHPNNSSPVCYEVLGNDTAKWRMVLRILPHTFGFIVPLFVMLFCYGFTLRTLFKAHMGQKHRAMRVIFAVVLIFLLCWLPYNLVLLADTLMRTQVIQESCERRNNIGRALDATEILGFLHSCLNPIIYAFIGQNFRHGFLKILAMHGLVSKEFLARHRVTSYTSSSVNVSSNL

The target in data set [2] is C-C chemokine receptor type 5 (Homo sapiens, UniProt P51681). The class given is cell membranes, Membrane. As to conditions: hek293. Also: in other assays of this panel Not Active means under 50% inhibition at 10 µM.
Chain of C-C chemokine receptor type 5 (P51681 whole entry): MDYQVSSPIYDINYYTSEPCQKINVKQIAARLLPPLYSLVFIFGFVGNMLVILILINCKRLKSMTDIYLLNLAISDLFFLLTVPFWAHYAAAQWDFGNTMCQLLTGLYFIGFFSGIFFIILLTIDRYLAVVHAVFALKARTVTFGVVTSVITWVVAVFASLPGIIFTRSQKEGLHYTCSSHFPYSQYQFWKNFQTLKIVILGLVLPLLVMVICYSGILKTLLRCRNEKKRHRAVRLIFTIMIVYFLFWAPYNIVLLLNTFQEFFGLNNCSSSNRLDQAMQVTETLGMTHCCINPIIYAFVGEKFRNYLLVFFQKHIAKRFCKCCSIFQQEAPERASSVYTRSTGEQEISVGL
In data set [3] the target is Protein phosphatase 3 catalytic subunit alpha (Homo sapiens, UniProt Q08209). Also noted: species or system Escherichia coli.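 Also: inhibition of calcineurin (PP2B) enzyme activity, measured with DiFMUP as the substrate; in other assays of this panel Not Active means under 50% inhibition at 10 µM.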
Data set [4] can be described thus: DRUGMATRIX: Phorbol Ester radioligand binding (ligand: [3H] PDBu). The class given is cell membranes, Mus musculus, ICR, Brain, Membrane. Conditions: Not Active = under 50% inhibition at 10 µM.
Data set [5] deals with T2, Alpha-2A adrenergic receptor (Homo sapiens, UniProt P08913).
T2 sequence (P08913 whole entry): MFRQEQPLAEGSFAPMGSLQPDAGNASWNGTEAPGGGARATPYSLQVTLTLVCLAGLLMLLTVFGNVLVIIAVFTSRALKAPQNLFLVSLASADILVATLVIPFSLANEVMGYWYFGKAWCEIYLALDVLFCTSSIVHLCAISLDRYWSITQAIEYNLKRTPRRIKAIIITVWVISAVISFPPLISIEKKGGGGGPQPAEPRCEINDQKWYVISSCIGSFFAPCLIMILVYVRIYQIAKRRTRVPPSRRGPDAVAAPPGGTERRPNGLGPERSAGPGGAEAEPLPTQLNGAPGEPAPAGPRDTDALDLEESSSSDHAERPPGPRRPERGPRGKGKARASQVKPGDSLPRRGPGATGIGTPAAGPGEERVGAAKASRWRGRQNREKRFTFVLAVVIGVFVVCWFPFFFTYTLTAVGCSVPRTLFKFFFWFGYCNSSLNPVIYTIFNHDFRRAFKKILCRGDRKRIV
The class given is cell membranes, Sf9, Membrane.

Data set [6] in a line: DRUGMATRIX: Serotonin (5-Hydroxytryptamine) 5-HT3 radioligand binding (ligand: [3H] GR-65630). The class given is cell membranes, Membrane. Conditions: hek293, Not Active = under 50% inhibition at 10 µM.
Data set [7] concerns the target Tyrosine-protein kinase Lck (Homo sapiens, UniProt P06239). The data set can be described thus: DRUGMATRIX: Protein Tyrosine Kinase, LCK enzyme inhibition (substrate: Poly(Glu:Tyr)). Conditions: insect cells; Not Active = under 50% inhibition at 10 µM. In kind it is cell-based, Insect cells.
Data set [8] addresses Melanocortin receptor 3 (Homo sapiens, UniProt P41968). The class given is cell membranes, Membrane. Conditions: hek293.
Data set [9] addresses T3, Polyunsaturated fatty acid lipoxygenase ALOX15 (Oryctolagus cuniculus, UniProt P12530).
T3 sequence (P12530 whole entry): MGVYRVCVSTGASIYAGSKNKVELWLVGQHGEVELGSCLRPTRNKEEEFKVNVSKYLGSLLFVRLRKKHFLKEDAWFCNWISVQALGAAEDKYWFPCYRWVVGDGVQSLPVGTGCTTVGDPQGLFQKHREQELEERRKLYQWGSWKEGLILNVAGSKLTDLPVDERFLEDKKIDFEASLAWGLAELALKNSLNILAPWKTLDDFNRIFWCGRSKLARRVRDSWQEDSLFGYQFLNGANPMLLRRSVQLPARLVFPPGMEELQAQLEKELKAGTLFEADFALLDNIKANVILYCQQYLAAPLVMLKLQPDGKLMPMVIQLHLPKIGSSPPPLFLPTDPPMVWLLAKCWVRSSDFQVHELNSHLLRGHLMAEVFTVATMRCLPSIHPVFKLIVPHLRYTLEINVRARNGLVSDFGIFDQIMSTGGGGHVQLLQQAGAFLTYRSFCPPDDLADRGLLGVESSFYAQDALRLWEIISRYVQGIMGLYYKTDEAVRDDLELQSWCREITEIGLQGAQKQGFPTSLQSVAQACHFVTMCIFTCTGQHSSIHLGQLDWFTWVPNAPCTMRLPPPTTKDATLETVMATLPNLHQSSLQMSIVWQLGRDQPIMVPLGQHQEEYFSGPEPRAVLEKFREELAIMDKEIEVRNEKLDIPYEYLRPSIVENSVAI
Briefly: biochemical. In kind it is tissue-based, Reticulocytes. Conditions: reticulocytes.

Data set [10] is described as follows: DRUGMATRIX: Calcium Channel Type L, Phenylalkylamine radioligand binding (ligand: [3H] (-)-Desmethoxyverapamil (D-888)). The class given is cell membranes, Rattus norvegicus, Wistar, Brain, Membrane. As to conditions: Not Active = under 50% inhibition at 10 µM.
The target of data set [11] is Cytochrome P450 2C9 (Homo sapiens, UniProt P11712). As to conditions: bti-tn-5b1-4. Also: in other assays of this panel Not Active means under 50% inhibition at 10 µM.
Chain of Cytochrome P450 2C9 (P11712 whole entry): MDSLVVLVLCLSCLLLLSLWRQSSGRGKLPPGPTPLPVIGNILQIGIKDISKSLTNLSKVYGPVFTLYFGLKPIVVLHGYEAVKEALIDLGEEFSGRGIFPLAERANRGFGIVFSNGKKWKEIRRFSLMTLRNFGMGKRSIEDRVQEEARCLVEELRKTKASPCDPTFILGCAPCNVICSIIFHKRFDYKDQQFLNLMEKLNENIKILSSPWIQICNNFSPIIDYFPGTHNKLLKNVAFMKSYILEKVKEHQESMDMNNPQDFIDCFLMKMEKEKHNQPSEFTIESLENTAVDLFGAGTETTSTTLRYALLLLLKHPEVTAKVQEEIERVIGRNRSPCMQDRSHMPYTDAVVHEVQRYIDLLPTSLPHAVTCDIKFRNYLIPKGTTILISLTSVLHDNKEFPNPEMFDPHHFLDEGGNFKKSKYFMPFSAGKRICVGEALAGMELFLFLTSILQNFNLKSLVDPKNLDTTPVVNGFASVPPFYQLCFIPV
Data set [12] has as its target 5-hydroxytryptamine receptor 6 (Homo sapiens, UniProt P50406). In kind it is cell membranes, HeLa, Membrane. As to conditions: hela. Also: in other assays of this panel Not Active means under 50% inhibition at 10 µM.
The target in data set [13] is Melanocortin receptor 5 (Homo sapiens, UniProt P33032). The class given is cell membranes, HEK293, Membrane. As to conditions: hek293. Also: in other assays of this panel Not Active means under 50% inhibition at 10 µM.
Chain of Melanocortin receptor 5 (P33032 whole entry): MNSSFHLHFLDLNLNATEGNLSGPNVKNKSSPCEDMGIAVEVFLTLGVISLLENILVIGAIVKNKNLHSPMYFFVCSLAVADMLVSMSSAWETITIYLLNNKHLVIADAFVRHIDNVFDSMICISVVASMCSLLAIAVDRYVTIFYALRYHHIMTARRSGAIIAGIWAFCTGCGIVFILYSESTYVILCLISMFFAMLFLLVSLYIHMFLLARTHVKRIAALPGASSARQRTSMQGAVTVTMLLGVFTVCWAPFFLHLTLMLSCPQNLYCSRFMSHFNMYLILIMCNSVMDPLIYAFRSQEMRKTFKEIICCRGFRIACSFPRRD

Chain of Tyrosine-protein kinase Lck (P06239 whole entry): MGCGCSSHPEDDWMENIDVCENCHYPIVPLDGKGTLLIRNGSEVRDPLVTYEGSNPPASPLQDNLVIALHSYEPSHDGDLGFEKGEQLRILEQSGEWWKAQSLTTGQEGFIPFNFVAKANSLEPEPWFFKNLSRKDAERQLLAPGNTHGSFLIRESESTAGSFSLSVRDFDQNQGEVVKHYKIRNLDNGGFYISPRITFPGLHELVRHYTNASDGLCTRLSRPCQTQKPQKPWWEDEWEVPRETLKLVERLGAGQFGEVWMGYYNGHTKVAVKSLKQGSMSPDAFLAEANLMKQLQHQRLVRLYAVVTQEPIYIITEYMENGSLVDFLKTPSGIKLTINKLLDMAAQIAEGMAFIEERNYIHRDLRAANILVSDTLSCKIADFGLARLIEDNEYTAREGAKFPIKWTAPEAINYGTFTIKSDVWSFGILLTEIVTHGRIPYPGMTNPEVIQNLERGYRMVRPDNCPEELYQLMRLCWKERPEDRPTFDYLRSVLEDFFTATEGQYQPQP
Chain of 5-hydroxytryptamine receptor 6 (P50406 whole entry): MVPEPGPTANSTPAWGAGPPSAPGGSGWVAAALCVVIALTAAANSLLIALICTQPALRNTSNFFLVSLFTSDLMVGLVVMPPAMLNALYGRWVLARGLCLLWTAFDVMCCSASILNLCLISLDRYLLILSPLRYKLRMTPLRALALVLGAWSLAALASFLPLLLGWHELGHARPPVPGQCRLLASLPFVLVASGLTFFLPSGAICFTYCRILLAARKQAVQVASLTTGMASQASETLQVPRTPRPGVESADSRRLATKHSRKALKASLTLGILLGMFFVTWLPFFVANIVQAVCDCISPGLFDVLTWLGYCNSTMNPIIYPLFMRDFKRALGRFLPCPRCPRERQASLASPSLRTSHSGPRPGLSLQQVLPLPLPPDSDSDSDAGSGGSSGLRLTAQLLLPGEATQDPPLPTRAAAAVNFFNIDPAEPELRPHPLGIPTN
Chain of Melanocortin receptor 3 (P41968 whole entry): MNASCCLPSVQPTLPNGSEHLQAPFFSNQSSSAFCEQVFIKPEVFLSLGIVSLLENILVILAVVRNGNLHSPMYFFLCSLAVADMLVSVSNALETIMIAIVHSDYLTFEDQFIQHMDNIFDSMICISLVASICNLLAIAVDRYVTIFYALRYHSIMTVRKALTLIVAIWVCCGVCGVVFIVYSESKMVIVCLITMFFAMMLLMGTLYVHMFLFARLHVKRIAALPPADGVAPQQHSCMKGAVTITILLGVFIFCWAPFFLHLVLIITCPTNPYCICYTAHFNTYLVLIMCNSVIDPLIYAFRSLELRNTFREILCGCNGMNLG

On to `CCCCCCCCCc1ccc(O)cc1` [4-NONYLPHENOL], for which the IC50 entry in data set [1] was “Not Active”; in [2] it was “Not Active”; in [3], “Not Active”; in data set [4], “Not Active”; in [5] (read-out: IC50), 6780 nM; in data set [6], “Not Active”. In addition, the IC50 result in data set [7], in data set [8], in data set [9], in data set [10], in data set [11] and in data set [12] was “Not Active” throughout. Also, the IC50 entry in data set [13] is “Not Active”. In addition, the Ki result is “Not Active” in [4]; 2540 nM in data set [5] (read-out: Ki); “Not Active” in [6]; “Not Active” in data set [10]; “Not Active” in data set [11].

Take `COc1ccc2c(c1)c(CC(=O)OCC(=O)O)c(C)n2C(=O)c1ccc(Cl)cc1` [ACEMETACIN]: the half-maximal inhibitory concentration (IC50) result in data set [1], in [2], in data set [3], in data set [4], in [5] (sf9) and in data set [6] was “Not Active” throughout. Besides, the concentration for half-maximal inhibition (IC50) result in [7], in data set [8], in data set [9], in data set [10], in [11] and in data set [12] was “Not Active” in each case. Further, in data set [13], the IC50 entry is given as “Not Active”. The inhibitory constant (Ki) entry in data set [4], in [6], in data set [10] and in [11] was “Not Active” in each case.

For the compound `CCCSc1ccc2nc(NC(=O)OC)[nH]c2c1` [ALBENDAZOLE], the IC50 entry in data set [1], in data set [2], in [3], in data set [4], in data set [5] (sf9) and in data set [6] was “Not Active” throughout. In addition, the half-inhibitory concentration (IC50) result in [7], in [8], in data set [9], in data set [10], in data set [11] and in data set [12] was “Not Active” in each case. In addition, the IC50 entry in [13] is reported as “Not Active”. The Ki entry in [4], in data set [6], in data set [10] and in data set [11] was “Not Active” in each case.

In the case of `Cc1[nH]cnc1CN1CCc2c(c3ccccc3n2C)C1=O` [ALOSETRON], the IC50 result in data set [1] is “Not Active”; in [2] it was “Not Active”; in data set [3], “Not Active”; in [4], “Not Active”; in data set [5] (sf9), “Not Active”; in [6] (read-out: IC50) it was 1.16 nM. In addition, the IC50 result in data set [7], in [8], in [9], in data set [10], in data set [11] and in data set [12] was “Not Active” each time. Also, the IC50 entry in data set [13] is on record as “Not Active”. The inhibitory constant (Ki) result in data set [4] was “Not Active”; in data set [6] (read-out: Ki), 0.262 nM; in data set [10], “Not Active”; in data set [11], “Not Active”.

Turning to `CC1(C)S[C@@H]2[C@H](NC(=O)[C@H](N)c3ccc(O)cc3)C(=O)N2[C@H]1C(=O)O` [AMOXICILLIN], the concentration for half-maximal inhibition (IC50) entry in data set [1], in [2], in data set [3], in data set [4], in data set [5] (sf9) and in [6] was “Not Active” each time. The half-maximal inhibitory concentration (IC50) result in [7], in [8], in data set [9], in data set [10], in data set [11] and in [12] was “Not Active” throughout. In addition, the IC50 entry in [13] is “Not Active”. For the same compound, the Ki entry in [4], in data set [6], in data set [10] and in data set [11] was “Not Active” throughout.

Turning to `N=C(N)NCCCCNC(=N)N.O=S(=O)(O)O` [ARCAINE SULFATE], the half-maximal inhibitory concentration (IC50) result in data set [1], in [2], in data set [3], in [4], in [5] (sf9) and in [6] was “Not Active” each time. For the same compound, the concentration for half-maximal inhibition (IC50) result in data set [7], in data set [8], in data set [9], in [10], in [11] and in [12] was “Not Active” in each case. Also, the IC50 entry in [13] is given as “Not Active”. The inhibitory constant (Ki) result in [4], in [6], in data set [10] and in data set [11] was “Not Active” in each case.

Take `CCOC(=O)c1ccc(N)cc1` [BENZOCAINE]: the half-maximal inhibitory concentration (IC50) result in data set [1], in data set [2], in data set [3], in data set [4], in data set [5] (sf9) and in data set [6] was “Not Active” throughout. The IC50 entry in data set [7], in data set [8], in data set [9], in data set [10], in data set [11] and in [12] was “Not Active” throughout. In addition, in data set [13], the IC50 entry was “Not Active”. In addition, the Ki entry in data set [4], in data set [6], in data set [10] and in data set [11] was “Not Active” in each case.
